According to US9266835B2, “Quinoline derivatives useful as CB-1 inverse agonists” (JANSSEN PHARMACEUTICA NV, priority 2014, dated 2016):

Assays:
[1] = target: Human CB1R (Cannabinoid receptor 1) (Homo sapiens (Human), UniProt P21554); experiment: CB-1 in vitro cAMP assay (HTRF), inverse agonism; format: cell-based; conditions: mean where tested more than once
Text: (§1) CB1 and CB2 receptors are Gi-coupled GPCR. Activation of CB1 and CB2 receptors results in a decrease in cAMP production. An inverse agonist of the CB1 or CB2 receptor results in the opposite effect, an increase of cAMP production. The principle of this assay is based on HTRF® technology (Homogeneous Time-Resolved Fluorescence). The method is a competitive immunoassay between native cAMP produced by cells and the cAMP labeled with the fluorophore d2. The tracer binding is quantified by a Mab anti-cAMP labeled with Eu3+TBP-NHS Cryptate (supplied as part of the assay kit). The specific signal (i.e. energy transfer) is inversely proportional to the concentration of cAMP in the standard or sample.
(§2) Human CB1R (Cannabinoid receptor 1) was stably transfected in HEK-293 cells (DiscoveRx, cat: 93-0200C1). Human CB2R (Cannabinoid receptor 2) was stably transfected in HEK-293 cells (DiscoveRx, cat: 93-0201C1). Cell cultures were maintained in media: DMEM (Invitrogen Cat#12430-054) supplemented with 10% HI FBS (Invitrogen Cat#16140-071), 1% L-glutamine (Invitrogen Cat#25030-081), 0.2 mg/ml Hygromycin B (Invitrogen Cat#10687-010), 600 μg/mL G418 (Invitrogen Cat#10131-035), and 1X Penn/Strep (Invitrogen 15140-122). After cell expansion, aliquots were cryo-stored in media containing 5% DMSO (Pierce Cat#20684).
(§3) One day prior to experiments media was warmed to 37° C. and the cryo-stored cells were thawed in a 37° C. water bath. The cells were then added to media (10× volume) and the mixture was centrifuged at 1000 RPM for 5 min. The supernate was removed and the cells were re-suspended in media. A sample of the cell suspension was evaluated on a Cedex XS automated cell counter (Innovatis Systems) to determine viable cells/ml. Additional media was added to the cells to achieve a final cell density of 4E5 cells/mL. The cells were then plated into 384 well PDL white solid bottom plates (Greiner, Cat#781945) at 20 μL per well using a Multidrop (Thermo Scientific). Cells were removed from Row P (location of cAMP standards). Two columns of cells were plated into a clear bottom 384 well PDL coated plate (Greiner, Cat#781944) to view confluence the day of the assay. The cell plates were lidded and stored for 15 minutes in a hood, then transferred to an incubator (37° C., 5% CO2, 95% humidity) overnight.
(§4) DMSO was added to all wells of 384 well V bottom polystyrene plate (Greiner, Cat#781280) except to columns 1 and 13, rows 0 and P and wells M13-M23 and N13-N23. Test compounds (60 μL, 10 mM) were added to Column 1 and 13 (A1 through N1 and A13 through L13). Test compounds were serially diluted 1/3 by transferring and mixing 20 μl sample with 40 μL DMSO.
(§5) DMSO (40 μL) was added to wells of 384 well V bottom polystyrene plate: O2 through O11, M14 through M23, N14 through N23, and O14 through O23. AM630 (also known as [6-iodo-2-methyl-1-[2-(4-morpholinyl)ethyl]-1H-indol-3-yl](4-methoxyphenyl)-methanone, Cayman Chemical, Cat#10006974) (60 μL, 10 mM) was added to 01; and 1-(2,4-dichlorophenyl)-7-[(4-fluorophenyl)methylene]-4,5,6,7-tetrahydro-N-1-piperidinyl-1H-indazole-3-carboxamide (60 μL, 10 mM) was added to N13. The control was serially diluted 1/3 by transferring and mixing 20 μl sample with 40 μL DMSO. This process resulted 11 doses per control, 10 mM to […].
(§6) Cells plated the day prior to the assay in clear bottom plates were viewed on an inverse microscope to ensure confluency in the range of 60-75%. […]

[2] = target: Human CB2R (Cannabinoid receptor 2) (Homo sapiens (Human), UniProt P34972); experiment: CB-2 in vitro cAMP assay (HTRF), inverse agonism; format: cell-based; conditions: mean where tested more than once
Human CB2R (Cannabinoid receptor 2), sequence (P34972 whole entry): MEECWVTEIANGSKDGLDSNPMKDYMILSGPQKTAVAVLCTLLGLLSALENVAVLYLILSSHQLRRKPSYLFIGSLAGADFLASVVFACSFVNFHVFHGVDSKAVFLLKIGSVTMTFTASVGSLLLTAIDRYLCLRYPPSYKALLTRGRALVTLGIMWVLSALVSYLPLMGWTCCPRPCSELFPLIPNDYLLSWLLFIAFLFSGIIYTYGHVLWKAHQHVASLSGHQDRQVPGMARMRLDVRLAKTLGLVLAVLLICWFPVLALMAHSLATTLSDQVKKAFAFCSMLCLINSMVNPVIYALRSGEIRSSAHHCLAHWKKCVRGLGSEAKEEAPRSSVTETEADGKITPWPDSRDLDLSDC
Text: as §1, §2, §3, §4, §5, §6

Human CB1R (Cannabinoid receptor 1), sequence (P21554 whole entry): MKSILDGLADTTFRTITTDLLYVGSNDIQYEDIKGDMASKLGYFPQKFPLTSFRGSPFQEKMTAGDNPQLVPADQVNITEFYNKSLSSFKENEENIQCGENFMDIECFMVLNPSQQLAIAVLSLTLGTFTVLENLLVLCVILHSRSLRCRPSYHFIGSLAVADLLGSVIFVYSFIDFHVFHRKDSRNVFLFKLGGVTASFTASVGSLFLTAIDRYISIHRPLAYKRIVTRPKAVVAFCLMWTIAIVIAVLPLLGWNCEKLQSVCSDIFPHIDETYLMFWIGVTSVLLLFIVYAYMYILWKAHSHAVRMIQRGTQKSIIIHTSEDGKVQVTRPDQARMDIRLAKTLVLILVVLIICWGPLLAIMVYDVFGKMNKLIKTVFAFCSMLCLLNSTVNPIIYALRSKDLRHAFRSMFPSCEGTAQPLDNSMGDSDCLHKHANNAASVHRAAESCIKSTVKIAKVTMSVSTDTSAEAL

Row | Compound | EC50 [1] | EC50 [2]
1 | O=c1cc(NC2CCN(S(=O)(=O)C(F)(F)F)CC2)c2cc(C(O)(c3ccc(F)cc3)c3ccc(Cl)cc3)ccc2[nH]1 (stereo not shown) [Compound 50, 6-[(4-Chlorophenyl)(4-fluorophenyl)hydroxymethyl]-4-({1-[(trifluoromethyl)sulfonyl]-piperidin-4-yl}amino)quinolin-2(1H)-one] | 530 nM | 9700 nM
2 | O=C(O)c1ccc(S(=O)(=O)N2CCC(Nc3cc(=O)[nH]c4ccc(C(c5ccc(Cl)cc5)c5ccc(Cl)cc5)cc34)CC2)o1 [Compound 131, 5-{[4-({6-[Bis(4-chlorophenyl)methyl]-2-oxo-1,2-dihydroquinolin-4-yl}amino)piperidin-1-yl]sulfonyl}furan-2-carboxylic acid] | 251 nM | 3930 nM
3 | O=c1cc(N[C@H]2CCN(S(=O)(=O)C(F)(F)F)C2)c2cc(C(c3ccc(Cl)cc3)c3nccs3)ccc2[nH]1 (stereo partly drawn) [Compound 48, 6-[(4-Chlorophenyl)(1,3-thiazol-2-yl)methyl]-4-({(3S)-1-[(trifluoromethyl)sulfonyl]-pyrrolidin-3-yl}amino)quinolin-2(1H)-one] | 230 nM | > 3300 nM
4 | O=c1cc(C2=CCN(S(=O)(=O)C(F)(F)F)CC2)c2cc(C(c3ccc(Cl)cc3)c3ccc(Cl)cc3)ccc2[nH]1 [Compound 17, 6-(bis(4-chlorophenyl)methyl)-4-(1-((trifluoromethyl)sulfonyl)-1,2,3,6-tetrahydropyridin-4-yl)quinolin-2(1H)-one] | 827 nM | 80 nM
5 | Clc1ccc(C(c2ccsc2)c2ccc3nccc(/C=C/c4ccccc4)c3c2)cc1 (stereo not shown) [Compound 509, 6-[(4-Chlorophenyl)(thiophen-3-yl)methyl]-4-[(E)-2-phenylethenyl]quinoline] | 140 nM | > 10000 nM
6 | O=c1cc(/C=C/c2ccccc2)c2cc(C(c3ccc(Cl)cc3)c3ccc(Cl)cc3)ccc2[nH]1 [Compound 502] | 580 nM | > 10000 nM
7 | COc1ccc(C(c2ccc(Cl)cc2)c2ccc3[nH]c(=O)cc(/C=C/c4ccccc4)c3c2)cc1 (stereo not shown) [Compound 514, (E)-6-((4-chlorophenyl)(4-methoxyphenyl)methyl)-4-styrylquinolin-2(1H)-one] | 426 nM | > 10000 nM
8 | O=c1cc(CCc2cccc(Cl)c2)c2cc(C(c3ccc(Cl)cc3)c3nccs3)ccc2[nH]1 (stereo not shown) [Compound 11, 4-(3-chlorophenethyl)-6-((4-chlorophenyl)(thiazol-2-yl)methyl)quinolin-2(1H)-one] | 121 nM | > 10000 nM
9 | O=c1cc(/C=C\c2ccc(C(F)(F)F)cc2)c2cc(C(c3ccc(Cl)cc3)c3cccs3)ccc2[nH]1 (stereo not shown) [Compound 18, 6-[(4-Chlorophenyl)(thiophen-2-yl)methyl]-4-{(Z)-2-[4-(trifluoromethyl)phenyl]-ethenyl}quinolin-2(1H)-one] | 875 nM | > 10000 nM
10 | NC(=O)CCC(=O)N1CCC(Nc2cc(=O)[nH]c3ccc(C(c4ccc(Cl)cc4)c4ccc(Cl)cc4)cc23)CC1 [Compound 112, 4-[4-({6-[Bis(4-chlorophenyl)methyl]-2-oxo-1,2-dihydroquinolin-4-yl}amino)piperidin-1-yl]-4-oxobutanamide] | 302 nM | > 10000 nM
11 | O=C(c1ccccc1)N1CCC(Nc2cc(=O)[nH]c3ccc(C(c4ccc(Cl)cc4)c4ccc(Cl)cc4)cc23)CC1 [Compound 64, 4-((1-benzoylpiperidin-4-yl)amino)-6-(bis(4-chlorophenyl)methyl)quinolin-2(1H)-one] | 28 nM | 4500 nM
12 | O=c1cc(NCc2ccc(C(F)(F)F)nc2)c2cc(C(c3ccc(Cl)cc3)c3ccc(Cl)cc3)ccc2[nH]1 [Compound #70, 6-(bis(4-chlorophenyl)methyl)-4-(((6-(trifluoromethyl)pyridin-3-yl)methyl)amino)quinolin-2(1H)-one] | 7 nM | > 10000 nM
13 | O=c1cc(NC2CCC(C(F)(F)F)CC2)c2cc(C(c3ccc(Cl)cc3)c3ccc(Cl)cc3)ccc2[nH]1 (stereo not shown) [Compound 88, 6-[Bis(4-chlorophenyl)methyl]-4-{[4-(trifluoromethyl)cyclohexyl]-amino}quinolin-2(1H)-one] | 111 nM | 3700 nM
14 | Cn1c(=O)cc(NC2CCN(S(=O)(=O)C(F)(F)F)CC2)c2cc(C(c3ccc(Cl)cc3)c3ccc(Cl)cc3)ccc21 [Compound #49, 6-[bis(4-chlorophenyl)methyl]-1-methyl-4-[[1-(trifluoromethane)sulfonylpiperidin-4-yl]amino]-1,2-dihydroquinolin-2-one] | 24 nM | > 10000 nM
15 | O=c1cc(/C=C/c2ccccc2)c2cc(C(c3ccc(Cl)cc3)c3nccs3)ccc2[nH]1 (stereo not shown) [Compound 25, (E)-6-((4-chlorophenyl)(thiazol-2-yl)methyl)-4-styrylquinolin-2(1H)-one] | 816 nM | > 10000 nM
16 | O=c1cc(NC2CCN(S(=O)(=O)C(F)(F)F)CC2)c2cc(C(c3ccc(O)cc3)c3ccc(Cl)cc3)ccc2[nH]1 (stereo not shown) [Compound #66, 6-((4-chlorophenyl)(4-hydroxyphenyl)methyl)-4-((1-((trifluoromethyl)sulfonyl)piperidin-4-yl)amino)quinolin-2(1H)-one] | 22 nM | 7690 nM
17 | COc1cc(NC2CCN(S(=O)(=O)C(F)(F)F)CC2)c2cc(C(c3ccc(Cl)cc3)c3ccc(Cl)cc3)cc(CCCO)c2n1 [Compound 550, 3-(6-(bis(4-chlorophenyl)methyl)-2-methoxy-4-((1-((trifluoromethyl)sulfonyl)piperidin-4-yl)amino)quinolin-8-yl)propan-1-ol] | 31 nM | 115 nM
18 | O=c1cc(NC2CCN(c3ccccc3)CC2)c2cc(C(c3ccc(Cl)cc3)c3ccc(Cl)cc3)ccc2[nH]1 [Compound 60, 6-[bis(4-chlorophenyl)methyl]-4-[(1-phenylpiperidin-4-yl)amino]quinolin-2-ol] | 6 nM | > 10000 nM
19 | O=c1cc(NC2CCN(S(=O)(=O)C(F)(F)F)CC2)c2cc(C(Cc3ccc(F)cc3)c3ccc(Cl)cc3)ccc2[nH]1 (stereo not shown) [Compound #135, 6-(1-(4-chlorophenyl)-2-(4-fluorophenyl)ethyl)-4-((1-((trifluoromethyl)sulfonyl)piperidin-4-yl)amino)quinolin-2(1H)-one] | 1100 nM | 6810 nM
20 | NC(=O)Cn1c(=O)cc(NC2CCN(S(=O)(=O)C(F)(F)F)CC2)c2cc(C(c3ccc(Cl)cc3)c3ccc(Cl)cc3)ccc21 [Compound 90, 2-(6-(bis(4-chlorophenyl)methyl)-2-oxo-4-((1-((trifluoromethyl)sulfonyl)piperidin-4-yl)amino)quinolin-1(2H)-yl)acetamide] | 967 nM | > 10000 nM
21 | O=c1cc(/C=C/c2ccccc2)c2cc(C(c3ccc(Cl)cc3)c3ccc(Cl)s3)ccc2[nH]1 (stereo not shown) [Compound 31, 6-[(4-Chlorophenyl)(5-chlorothiophen-2-yl)methyl]-4-[(E)-2-phenylethenyl]quinolin-2(1H)-one] | 2280 nM | > 10000 nM
22 | O=C(O)COc1cc(C(c2ccc(Cl)cc2)c2ccc(Cl)cc2)cc2c(NC3CCN(S(=O)(=O)C(F)(F)F)CC3)cc(=O)[nH]c12 [Compound 545] | 4900 nM | > 10000 nM
23 | COC(=O)c1ccc(C(=O)N2CCC(Nc3cc(=O)[nH]c4ccc(C(c5ccc(Cl)cc5)c5ccc(Cl)cc5)cc34)CC2)cc1 [Compound 113, Methyl 4-{[4-({6-[bis(4-chlorophenyl)methyl]-2-oxo-1,2-dihydroquinolin-4-yl}amino)piperidin-1-yl]carbonyl}benzoate] | 25 nM | > 10000 nM
